According to patent US20240287138A1, “CYCLIC PEPTIDES FOR INHIBITING TNF RECEPTOR 1 ACTIVITY” (Merck Sharp & Dohme LLC, priority 2023, published 2024):
Numbered stars: 1 amine (or outer) side, 2 acyl side, 3 side chain; on linkers, the order of the positions; unused ones are H or OH. Square brackets hold non-standard residues; d marks the D form. Peptide text beside a SMILES is read from it. Trp(βS-Me,7-OMe) = COc1cccc2c([C@H](C)[C@H](N)C(=O)O)c[nH]c12; X50 = C[C@@H](c1ccc(C(=O)O)cc1)[C@H](N[*:1])C(=O)[*:2]; Phe(2-F,4-COOH) = N[C@@H](Cc1ccc(C(=O)O)cc1F)C(=O)O; Phe(4-CH2COOH) = N[C@@H](Cc1ccc(CC(=O)O)cc1)C(=O)O; Trp(7-CN) = N#Cc1cccc2c(C[C@H](N)C(=O)O)c[nH]c12; Trp(7-Cl) = N[C@@H](Cc1c[nH]c2c(Cl)cccc12)C(=O)O; X43 = O=C(O)[C@H]1CC[C@@H](C(=O)[*:2])N([*:1])C1; Phe(4-CONH2) = NC(=O)c1ccc(C[C@H](N)C(=O)O)cc1; Phe(4-COOH) = N[C@@H](Cc1ccc(C(=O)O)cc1)C(=O)O; Ala(4-Pyridazinyl) = N[C@@H](Cc1ccnnc1)C(=O)O; Trp(7-aza) = N[C@@H](Cc1c[nH]c2ncccc12)C(=O)O; 3Pal(6-OMe) = COc1ccc(C[C@H](N)C(=O)O)cn1; Pip(5R-OH) = O=C(O)[C@@H]1CC[C@@H](O)CN1; X1 = O=C([C@@H]1CC[C@H](N[*:1])C1)[*:2]; Pip(4-aza) = O=C(O)[C@@H]1CNCCN1; 4Pal = N[C@@H](Cc1ccncc1)C(=O)O; NMeE = CN[C@@H](CCC(=O)O)C(=O)O; dHyp = O=C(O)[C@H]1C[C@H](O)CN1; Cit = NC(=O)NCCC[C@H](N)C(=O)O; αMeS = C[C@](N)(CO)C(=O)O; Nle = CCCC[C@H](N)C(=O)O; Sar = CNCC(=O)O

target: T1, TNFα-induced NF-κB signal transduction pathway (TNFR1 signaling) in THP-1 cells (Homo sapiens, UniProt P19438); assay: THP-1 Lucia NF-κB reporter cell assay, inhibition of TNFα-induced NF-κB signaling; type: cell-based; details: THP-1 NF-κB Lucia reporter cells, 10 ng/mL TNFα, 16-18 h, secreted luciferase; read-out: THP-1 IC50
T1 sequence (P19438 30-455): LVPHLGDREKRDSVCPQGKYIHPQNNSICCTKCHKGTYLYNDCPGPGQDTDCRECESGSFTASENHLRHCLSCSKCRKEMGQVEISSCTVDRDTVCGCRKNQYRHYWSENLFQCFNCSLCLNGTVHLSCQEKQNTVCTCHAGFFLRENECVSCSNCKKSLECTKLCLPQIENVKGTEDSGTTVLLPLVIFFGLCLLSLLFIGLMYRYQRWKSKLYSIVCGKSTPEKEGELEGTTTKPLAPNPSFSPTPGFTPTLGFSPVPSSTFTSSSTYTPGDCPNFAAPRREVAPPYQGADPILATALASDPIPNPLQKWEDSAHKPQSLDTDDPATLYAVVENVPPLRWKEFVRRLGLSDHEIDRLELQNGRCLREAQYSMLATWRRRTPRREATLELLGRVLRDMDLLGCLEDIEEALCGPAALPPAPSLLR
Description: C. Procedure for THP-1 Lucia NF-κB cells
The inhibition of TNFα-induced NF-κB signal transduction pathways was evaluated in THP-1 cells. THP-1 cells harboring NF-κB-inducible Lucia™ reporter gene (InvivoGen, cat. #thp1-nfkb) designed for monitoring NF-κB signal transduction pathway was employed to assess the inhibitory effect macrocyclic peptides on TNFR1 signaling. The cells were cultured in media containing RPMI 1640, 2 mM L-glutamine, 25 mM HEPES, 10% heat-inactivated fetal bovine serum with appropriate selection antibiotics. Assays were performed in media that was devoid of selection antibiotics. For profiling, 125 nL of peptides in DMSO (10 mM) were dispensed into Falcon® 384-well Optilux white/clear flat bottom TC-treated microtest microplate (Corning, cat. #353963) using Echo® 555. […] A suspension of 1 million cells/mL was dispensed at 20 μL/well in a 384-well plate to a density of 20,000 cells/well and pre-incubated with peptides at 37° C. for 1 h. Subsequently, 5 μL of TNF containing media (recombinant human TNFα; R&D Systems USA, cat. #210-TA-005/CF) or TNF-free media (for controls) was added to the wells. The final concentration of TNFα in the assay in 10 ng/mL. After o.n. incubation at 37° C. (16-18 h), 5 μL of supernatant was aspirated and transferred to a 384-well microplate (PerkinElmer, cat. #6007680) for measurement of secreted luciferase activity with 25 μL of QUANTI-Luc™ luminescence assay reagent (InvivoGen, cat. #rep-qlc1) in each well. The luminescence was measured in EnVision® Multimode Plate Reader (PerkinElmer). Dose response curves were analyzed using a 4-parameter logistic model to calculate IC50 values, reported in Table 2, using TIBCO® Spotfire® software employing appropriate Minimum and Maximum controls.

`CCCC[C@@H]1NC(=O)[C@@H]2CC[C@@H](C2)NC(=O)[C@H]([C@@H](C)c2c[nH]c3c(OC)cccc23)NC(=O)CN(C)C(=O)[C@H](Cc2ccc(O)cc2)NC(=O)[C@H](Cc2ccc(C(=O)O)cc2)NC(=O)[C@](C)(CO)NC(=O)[C@H](Cc2c[nH]c3c(Cl)cccc23)NC(=O)[C@H](Cc2ccc(OC)nc2)NC(=O)[C@H](CC(N)=O)NC(=O)[C@H](CCC(=O)O)N(C)C(=O)[C@H](Cc2c[nH]c3ccccc23)NC(=O)[C@@H]2CNCCN2C(=O)[C@H](Cc2ccncc2)NC1=O` [SEQ ID NO. 100] (cyclo([4Pal][Pip(4-aza)]W[NMeE]N[3Pal(6-OMe)][Trp(7-Cl)][αMeS][Phe(4-COOH)]Y[Sar][Trp(βS-Me,7-OMe)][X1][Nle])) and `CCCC[C@@H]1NC(=O)[C@@H]2CC[C@@H](C2)NC(=O)[C@H]([C@@H](C)c2c[nH]c3c(OC)cccc23)NC(=O)CN(C)C(=O)[C@H](Cc2ccc(O)cc2)NC(=O)[C@H](Cc2ccc(C(=O)O)cc2)NC(=O)[C@](C)(CO)NC(=O)[C@H](Cc2c[nH]c3c(Cl)cccc23)NC(=O)[C@H](Cc2ccc(C(=O)O)cc2F)NC(=O)[C@H](CC(N)=O)NC(=O)[C@H](CCC(=O)O)N(C)C(=O)[C@H](Cc2c[nH]c3ccccc23)NC(=O)[C@@H]2CNCCN2C(=O)[C@H](Cc2ccncc2)NC1=O` [SEQ ID NO. 108] (cyclo([4Pal][Pip(4-aza)]W[NMeE]N[Phe(2-F,4-COOH)][Trp(7-Cl)][αMeS][Phe(4-COOH)]Y[Sar][Trp(βS-Me,7-OMe)][X1][Nle])) are within 1.5-fold of each other in IC50: 1.3 nM for the first, 1.2 nM for the second.

Going from `CCCC[C@@H]1NC(=O)[C@@H]2CC[C@@H](C2)NC(=O)[C@H]([C@@H](C)c2c[nH]c3c(OC)cccc23)NC(=O)CN(C)C(=O)[C@H](Cc2ccc(C(=O)O)cc2)NC(=O)[C@H](Cc2ccc(C(N)=O)cc2)NC(=O)[C@](C)(CO)NC(=O)[C@H](Cc2c[nH]c3c(Cl)cccc23)NC(=O)[C@H](Cc2ccc(C(=O)O)cc2)NC(=O)[C@H](CC(N)=O)NC(=O)[C@H]2C[C@H](O)CN2C(=O)[C@H](Cc2c[nH]c3ccccc23)NC(=O)[C@@H]2CC[C@@H](O)CN2C(=O)[C@H](Cc2ccnnc2)NC1=O` [SEQ ID NO. 105] (cyclo(N[Phe(4-COOH)][Trp(7-Cl)][αMeS][Phe(4-CONH2)][Phe(4-COOH)][Sar][Trp(βS-Me,7-OMe)][X1][Nle][Ala(4-Pyridazinyl)][Pip(5R-OH)]W[dHyp])) to `CCCC[C@@H]1NC(=O)[C@@H]2CC[C@@H](C2)NC(=O)[C@H]([C@@H](C)c2c[nH]c3c(OC)cccc23)NC(=O)CN(C)C(=O)[C@H](Cc2ccc(O)cc2)NC(=O)[C@H](Cc2ccc(C(=O)O)cc2)NC(=O)[C@](C)(CO)NC(=O)[C@H](Cc2c[nH]c3c(Cl)cccc23)NC(=O)[C@H](Cc2ccncc2)NC(=O)[C@H](CC(N)=O)NC(=O)[C@H](CCC(=O)O)N(C)C(=O)[C@H](Cc2c[nH]c3ccccc23)NC(=O)[C@@H]2CC[C@H](C(=O)O)CN2C(=O)[C@H](Cc2ccncc2)NC1=O` [SEQ ID NO. 120] (cyclo([4Pal][Trp(7-Cl)][αMeS][Phe(4-COOH)]Y[Sar][Trp(βS-Me,7-OMe)][X1][Nle][4Pal][X43]W[NMeE]N)), the IC50 rises from 0.7 nM to 1.4 nM (2-fold). The first is the more potent here.

Compared with `CCCC[C@@H]1NC(=O)[C@@H]2CC[C@@H](C2)NC(=O)[C@H]([C@@H](C)c2c[nH]c3c(OC)cccc23)NC(=O)CN(C)C(=O)[C@H](Cc2ccc(O)cc2)NC(=O)[C@H](Cc2ccc(CC(=O)O)cc2)NC(=O)[C@](C)(CO)NC(=O)[C@H](Cc2c[nH]c3c(Cl)cccc23)NC(=O)[C@H](Cc2ccncc2)NC(=O)[C@H](CC(N)=O)NC(=O)[C@H](CCC(=O)O)N(C)C(=O)[C@H](Cc2c[nH]c3ccccc23)NC(=O)[C@@H]2CNCCN2C(=O)[C@H](Cc2ccncc2)NC1=O` [SEQ ID NO. 111] (cyclo([4Pal][Trp(7-Cl)][αMeS][Phe(4-CH2COOH)]Y[Sar][Trp(βS-Me,7-OMe)][X1][Nle][4Pal][Pip(4-aza)]W[NMeE]N)), `CCCC[C@@H]1NC(=O)[C@@H]2CC[C@@H](C2)NC(=O)[C@H]([C@@H](C)c2c[nH]c3c(OC)cccc23)NC(=O)CN(C)C(=O)[C@H](Cc2ccc(C(N)=O)cc2)NC(=O)[C@H](Cc2ccc(C(N)=O)cc2)NC(=O)[C@](C)(CO)NC(=O)[C@H](Cc2c[nH]c3c(C#N)cccc23)NC(=O)[C@H](Cc2ccc(C(=O)O)cc2)NC(=O)[C@H](CC(N)=O)NC(=O)[C@H]2C[C@H](O)CN2C(=O)[C@H](Cc2c[nH]c3ncccc23)NC(=O)[C@H](CCCNC(N)=O)NC(=O)[C@H]([C@@H](C)c2ccc(C(=O)O)cc2)NC1=O` [SEQ ID NO. 118] (cyclo([Cit][Trp(7-aza)][dHyp]N[Phe(4-COOH)][Trp(7-CN)][αMeS][Phe(4-CONH2)][Phe(4-CONH2)][Sar][Trp(βS-Me,7-OMe)][X1][Nle][X50])) is 1.7-fold higher in IC50: 1.6 nM for the first, 2.8 nM for the second. The first is the more potent here.
